Like-named read-outs stand apart in the source and are kept apart here.
Columns and labels:
E. coli (ATCC 25922) = experiment: Inactivation of E. coli by disinfectants (membrane filter enumeration, contact time 5 min); type: cell-based, Escherichia coli; settings: for Log reduction (Mean ± SD): E. coli; for Log reduction (Mean ± SD) / E. coli inactivation rate constant k: pH 7.2, contact time 5 min; for log reduction at 3000 µg/mL: Escherichia coli, ATCC25922, 5 min, dose 3000 mg L-1, 5 min, read-out: Log (N/N0)
Experimental: The chemicals and reagents used are detailed in Supplementary Note 1. The bacteria E. coli (ATCC 25922) and S. aureus (ATCC 25923) were cultured aerobically in Luria-Bertani broth (Sigma-Aldrich) and Tryptone Soya broth (Oxoid), respectively, at 37 °C for 16 h. The fungus C. albicans (ATCC 14053) was aerobically cultured in Sabouraud Dextrose broth (Difco) at 37 °C for 24 h. The microorganism cells were harvested by centrifugation at 1200×g (10 min, 4 °C) and resuspended in phosphate-buffered saline (PBS, 10 mM, pH 7.2). The disinfection experiments were performed in PBS solutions (10 mM, pH 7.2) with an initial concentration of E. coli, S. aureus, or C. albicans of 10^6‒10^7 cells per milliliter. A contact time of 5 min was used in accordance with the recommended time range of 0.25–10 min by USEPA for surface disinfection. Preliminary tests were conducted to determine the appropriate range of DBP doses. The appropriate dose range was established when the lowest and highest doses could achieve <1-log and >3-log of microbial inactivation, respectively. Based on the preliminary results, a series of doses of DBPs were added to the cell suspensions at room temperature (22 ± 1 °C). After the contact time of 5 min, the microorganism cells were enumerated following a membrane filter method. Briefly, serial 10-fold dilutions were conducted for the disinfected samples and the control sample without disinfection. Each diluted suspension was subjected to filtration through 0.45-μm membrane, which was then placed on a petri dish. The Petri dishes containing E. coli, S. aureus, and C. albicans were incubated in m-FC medium (Becton Dickinson & Co) at 45 °C for 24 h, in Tryptone Soya broth at 37 °C for 24 h and in Sabouraud Dextrose broth at 37 °C for 24 h, respectively. After incubation, the colony-forming units within a statistically reasonable range (20–80) were counted.
The impact of pH on the disinfection efficiencies of DBPs was examined. E. coli (ATCC 25922) was used as the test strain. The disinfection experiments were performed in 10 mM PBS solutions (pH 6.2, 7.2, and 8.2) with an initial E. coli concentration of 10^6‒10^7 cells per milliliter. To initiate the disinfection, a DBP was dosed with a bacteria suspension at a predetermined concentration. After the given contact time (5 min) at room temperature (22 ± 1 °C), the bacteria were enumerated following the membrane filter method. The bacteria concentrations in the 10 mM PBS solutions (pH 6.2, 7.2, and 8.2) without the addition of DBPs were used as controls.

[1] = UPLC/ESI-tqMS time profile of 2,6-DCQ and its degradation products in simulated seawater (pH 8.2, darkness); OH-DCQ formation; settings: 2,6-DCQ degradation, pH 8.2, darkness
Experimental: A Waters UPLC system coupled with ESI-tqMS was used to characterize the degradation products of 2,6-DCQ. The UPLC separation was performed using an HSS T3 column (100 × 2.1 mm, 1.8 μm particle size, Waters) with a column temperature of 35 °C. A gradient eluent of methanol–water was applied at a flow rate of 0.4 mL min^−1. The gradient program was set as follows: methanol/water (v/v) ratio changed linearly from 5/95 to 90/10 in the first 8 min and then returned to 5/95 during 8.0‒8.1 min, which was held for 2.9 min for re-equilibration. The ESI-tqMS was set as follows: ESI negative mode, capillary voltage 2.8 kV, cone voltage 10–50 V (depending on analytes), cone gas flow 50 L h^−1, source temperature 120 °C, desolvation temperature 400 °C, desolvation gas flow 800 L h^−1, collision energy 15–50 eV (depending on analytes), collision gas (argon) flow 0.25 mL min^−1, and mass resolution 15 (1-unit resolution).
The degradation of 2,6-DCQ in seawater was simulated by adding 10 mg L^−1 2,6-DCQ to 50 mL ultrapure water, which was adjusted to pH 8.2 with 5 mM sodium carbonate (to simulate the alkalinity in seawater and also to be compatible with the subsequent UPLC/ESI-tqMS analysis). The sample was kept in darkness for 0–24 h, during which the pH of the sample was maintained at 8.1 ± 0.1. At a designated reaction time, 7.5 μL of the sample was injected into the UPLC system. For a nonhalogenated degradation product, the selected ion recording (SIR) mode with a dwell time of 0.05 s was adopted to obtain the retention time. For halogenated degradation products, the multiple reaction monitoring mode with a dwell time of 0.05 s was used to obtain the retention time and the isotopic abundance ratio. To investigate the time-dependent profile of 2,6-DCQ and its degradation products, the peak area of each compound was determined using the SIR mode in the UPLC/ESI-tqMS analysis.
The second aliquot was subjected to analysis of total organic halogen to quantify the collected OH-DCQ. The determination of total organic halogen was based on Standard Method 5320B[52], with modifications of using off-line ion chromatography for halide detection. Briefly, the aliquot was dissolved in 100 mL ultrapure water and acidified to pH 2 with concentrated nitric acid[52] prior to adsorption onto pre-packed activated carbon columns (Mitsubishi). A three-channel adsorption module (TXA03C, Mitsubishi Chemical Analytech) was used for adsorption. An AQF-100 automatic quick furnace (Mitsubishi Chemical Analytech) was used for pyrolysis. During the pyrolysis process, the chlorine atoms in OH-DCQ were converted to chloride. The chloride ion concentration was determined using an ICS-3000 ion chromatography system (Dionex). 2,6-DCQ was used as a standard compound for measuring total organic halogen to determine the recovery of the analysis. The total organic halogen analysis was conducted in duplicate.

Row | SMILES | log reduction at 3000 µg/mL (E. coli (ATCC 25922); pH 6.2, E. coli, pH 6.2) | log reduction at 3000 µg/mL (E. coli (ATCC 25922); pH 7.2, E. coli, pH 7.2) | log reduction at 3000 µg/mL (E. coli (ATCC 25922); pH 8.2, E. coli, pH 8.2) | E. coli inactivation rate constant k (E. coli (ATCC 25922)) | Peak area ([1]; 0 h) | Peak area ([1]; 0.25 h) | Peak area ([1]; 0.5 h) | Peak area ([1]; 0.75 h) | Peak area ([1]; 1 h) | Peak area ([1]; 1.25 h) | Peak area ([1]; 1.5 h) | Peak area ([1]; 1.75 h) | Peak area ([1]; 2 h) | Peak area ([1]; 2.25 h) | Peak area ([1]; 2.5 h) | Peak area ([1]; 2.75 h) | Peak area ([1]; 3 h) | Peak area ([1]; 3.25 h) | Peak area ([1]; 3.5 h) | Peak area ([1]; 3.75 h) | also measured
1 | O=C1C=C(Cl)C(=O)C=C1Cl [2,5-DCQ] | – | – | – | – | – | – | – | – | – | – | – | – | – | – | – | – | – | – | – | – | Log reduction (Mean ± SD) (E. coli (ATCC 25922); dose 7.5 mg L−1): 0.77 ± 0.14; Log reduction (Mean ± SD) (E. coli (ATCC 25922); dose 15 mg L−1): 3.78 ± 0.40
2 | O=C(O)c1cc(Br)ccc1O [5-BSA, 5-bromosalicylic acid] | 0.221 | 0.132 | 0.331 | < 0.01 L mg‒1 h‒1 | – | – | – | – | – | – | – | – | – | – | – | – | – | – | – | – | –
3 | O=C(O)c1cc(Cl)ccc1O [5-CSA, 5-chlorosalicylic acid] | 0.218 | 0.273 | 0.304 | < 0.01 L mg‒1 h‒1 | – | – | – | – | – | – | – | – | – | – | – | – | – | – | – | – | –
4 | O=C(O)c1cc(I)ccc1O [5-ISA, 5-iodosalicylic acid] | 0.247 | 0.373 | 0.282 | < 0.01 L mg‒1 h‒1 | – | – | – | – | – | – | – | – | – | – | – | – | – | – | – | – | –
5 | O=C1C=C(Cl)C(=O)C=C1O [SIR 157, 3-hydroxyl-6-monochloro-1,4-benzoquinone] | – | – | – | – | 131 | 1090 | 1291 | 1521 | 1656 | 1663 | 1773 | 1891 | 1830 | 2020 | 2128 | 2115 | 2124 | 2427 | 2418 | 2409 | Peak area ([1]; 4 h): 2447; Peak area ([1]; 4.5 h): 2594; Peak area ([1]; 5 h): 2821; Peak area ([1]; 5.5 h): 2983; Peak area ([1]; 6 h): 3514; Peak area ([1]; 8 h): 4489; Peak area ([1]; 10 h): 4560; Peak area ([1]; 12 h): 4418; Peak area ([1]; 14 h): 4868; Peak area ([1]; 16 h): 4755; Peak area ([1]; 18 h): 4648; Peak area ([1]; 20 h): 5024; Peak area ([1]; 24 h): 4289
6 | O=C1C=C(Cl)C(=O)C(OC2=C(Cl)C(=O)C(Cl)=CC2=O)=C1 [SIR 333] | – | – | – | – | 25 | 566 | 1172 | 1708 | 2037 | 2462 | 2725 | 2905 | 3055 | 3331 | 3689 | 3558 | 3681 | 3675 | 3524 | 3765 | Peak area ([1]; 4 h): 3768; Peak area ([1]; 4.5 h): 3886; Peak area ([1]; 5 h): 4092; Peak area ([1]; 5.5 h): 3835; Peak area ([1]; 6 h): 3706; Peak area ([1]; 8 h): 3365; Peak area ([1]; 10 h): 2830; Peak area ([1]; 12 h): 2308; Peak area ([1]; 14 h): 1768; Peak area ([1]; 16 h): 1379; Peak area ([1]; 18 h): 1089; Peak area ([1]; 20 h): 896; Peak area ([1]; 24 h): 463
